# Data from patent publication US9884065B2, “Inhibiting activity of senescent cells using a glucocorticoid” (Buck Institute for Research on Aging, priority 2011, dated 2018).
# How the values were obtained:
# [1] = test system: IL-6; assay: Initial drug screen (Prestwick Chemical Library), IL-6 ELISA of medium; type: cell-based, human; conditions: 2.5 μM, 48 hours, HCA2 fibroblasts, 0.2% serum
# Procedure: The initial drug screen was performed in a 96-well format using automated liquid handling with a Biomek FX (Beckman Coulter, CA). Senescent cells were plated 24 hours after X-irradiation at 7,500 cells per well in 96-well plates. Six days after plating the senescent cells, the pre-senescent cells were plated at 7,500 cells per well in 96-well plates. Twenty-four hours after pre-senescent plating, both pre-senescent and senescent cells were washed and incubated in low (0.2%) serum for 48 hours to arrest cell proliferation of the pre-senescent cells. […] Forty-eight hours after compound addition, the medium in each well was removed and frozen for assay by ELISA to quantitate the levels of IL-6. The cells, which remained in the wells after the medium was removed, were lysed and ATP levels were measured (ATPlite 1-step assay, Perkin Elmer, MA) to exclude compounds that lowered IL-6 through toxicity (cell death). Experimental wells in each plate were normalized to plate mean or same-plate DMSO controls for the ELISA and ATP assays, respectively.
# To identify small molecules that may be potential SASP modulators, a screening strategy that entailed administering compounds to parallel 96-well plates containing human fibroblasts (strain HCA2) that were either quiescent or senescent was developed. […] After 48 hours, the medium from each well was removed, and the cells were lysed. […] Cell lysates were assayed for ATP as a surrogate for cell number.
# [2] = test system: HCA2 human fibroblasts; conditions: 2.5 μM, 48 hours
# Procedure: The initial drug screen was performed in a 96-well format using automated liquid handling with a Biomek FX (Beckman Coulter, CA). Senescent cells were plated 24 hours after X-irradiation at 7,500 cells per well in 96-well plates. Six days after plating the senescent cells, the pre-senescent cells were plated at 7,500 cells per well in 96-well plates. Twenty-four hours after pre-senescent plating, both pre-senescent and senescent cells were washed and incubated in low (0.2%) serum for 48 hours to arrest cell proliferation of the pre-senescent cells. Drugs from the Prestwick Chemical Library, which contains 1120 bio-available compounds in DMSO, were given to the cells at 2.5 μM in media containing 0.2% serum. Forty-eight hours after compound addition, the medium in each well was removed and frozen for assay by ELISA to quantitate the levels of IL-6. The cells, which remained in the wells after the medium was removed, were lysed and ATP levels were measured (ATPlite 1-step assay, Perkin Elmer, MA) to exclude compounds that lowered IL-6 through toxicity (cell death). Experimental wells in each plate were normalized to plate mean or same-plate DMSO controls for the ELISA and ATP assays, respectively.
# To identify small molecules that may be potential SASP modulators, a screening strategy that entailed administering compounds to parallel 96-well plates containing human fibroblasts (strain HCA2) that were either quiescent or senescent was developed. The compounds tested comprised the Prestwick Chemical Library, a collection of approximately 1,120 Federal Drug Administration-approved drugs. The compounds were added to duplicate wells at a single concentration (2.5 μM). After 48 hours, the medium from each well was removed, and the cells were lysed. […] Cell lysates were assayed for ATP as a surrogate for cell number.
# [3] = test system: SASP; assay: Antibody arrays of conditioned media (120 cytokines and growth factors, SASP); type: cell-based, human; conditions: 500 nM corticosterone or 100 nM cortisol
# Procedure: Cultures were washed and incubated in serum-free DMEM for 24 hours and the conditioned media were diluted to equivalent cell numbers using DMEM. Antibody arrays from Raybiotech (AAH-CYT-G1000-8) were used according to the manufacturer's instructions. Arrays were scanned using a GenePix 4200A Professional microarray scanner. Signal intensities were quantitated using LI-COR Odyssey software and normalized to positive controls for each sample, which were then normalized across all samples, as previously described (Freund et al., 2011, EMBO J. 30:1536-1548).
# To determine whether or not, or to what extent corticosterone or cortisol suppressed the entire SASP, antibody arrays were used to interrogate the relative secretion of 120 cytokines and growth factors. Presenescent and senescent cells were incubated with 500 nM corticosterone or 100 nM cortisol (FIG. 12C).
# [4] = test system: SASP factor mRNA; assay: Real-time quantitative PCR of transcripts in HCA2 cells (normalized to tubulin); type: cell-based, human; conditions: 500 nM corticosterone or 100 nM cortisol; for IL-6, IL-8, MMP-3 mRNA levels: senescent X-irradiated HCA2 cells
# From the text: Cells (7,500/well) in 96-well plates were lysed and reverse transcribed using the Cells-To-Ct kit (Ambion).
# [5] = test system: IL-1α; assay: Immunostaining for IL-1α in HCA2 cells; type: cell-based, human; conditions: senescent cells 7 days after irradiation; 500 nM corticosterone or 100 nM cortisol
# Procedure: (FIG. 14B) mRNA extracted from cells described in (FIG. 14A) was used to quantify transcripts for IL-6 (normalized to tubulin). (FIG. 14C) Pre and Sen (XRA) cells, prepared as described in (FIG. 14A), were immunostained for IL-1α. Sen (XRA) cells were immunostained 7 days after irradiation.
# Cells were cultured in 8-well chamber slides, fixed in 4% formaldehyde (Sigma) for 10 min at 4° C. and permeabilized in PBS-0.5% Triton for 10 min in 4° C.
# [6] = test system: IL-1α/IL-1 receptor (IL-1R) signaling; assay: Western blotting of HCA2 lysates for IRAK1, IκBα, RelA; type: cell-based, human; conditions: senescent cells; 500 nM corticosterone or 100 nM cortisol
# Procedure: Cells were lysed in RIPA buffer. Lysates were sonicated (10 sec), followed by centrifugation. Samples were incubated at 70° C. for 10 min, loaded on 4-15% gradient tris-glycine SDS-polyacrylamide gels (Invitrogen) and separated by electrophoresis. Proteins were transferred to PVDF membranes, blocked in TBST 5% milk for 1 hour at room temperature, and probed overnight at 4° C. with primary antibodies in blocking buffer. Membranes were washed in TBST, and incubated with horseradish peroxidase-conjugated secondary antibodies for 1 hour at room temperature. Blots were developed using Western detection substrate (GE Healthcare).
# Primary antibodies and dilutions were: anti-GR (SC-8992, Santa Cruz; 1:500), anti-actin (ab6276, Abcam; 1:50000), anti-MCR (SC-11412, Santa Cruz; 1:500), anti-IRAK1 (SC-5288, Santa Cruz; 1:500), anti-IκBα (#9247, Cell Signaling; 1:500), anti-RelA (SC-109, Santa Cruz; 1:500), and anti-53BP1 (A300-272A, Bethyl; 1:500).
# [7] = test system: NF-κB; assay: NF-κB DNA binding activity in nuclear extracts (TransAM NF-κB p65 kit); type: cell-based, human; conditions: senescent cells; 500 nM corticosterone or 100 nM cortisol
# Procedure: (§1) Nuclear extracts were prepared using the nuclear extract kit (Active Motif), and NF-κB DNA binding was determined using the TransAM NF-κB p65 kit (Active Motif). For transactivation assays, cells infected with the NF-κB reporter-luciferase lentivirus were lysed in buffer (Promega), and luciferase activity was normalized to cell number, as described (Freund et al., 2011, EMBO J. 30:1536-1548).
# [8] = test system: NF-κB; assay: NF-κB reporter-luciferase transactivation assay; type: cell-based, human; conditions: senescent cells; 500 nM corticosterone or 100 nM cortisol
# Procedure: as §1
SMILES,IL-6 secretion (ELISA) [1],ATP levels [2],secretion of growth and angiogenic factors [3],secretion of pro-inflammatory cytokines and chemokines [3],suppression of all components of the SASP [3],GR mRNA levels [4],IκBα mRNA levels [4],"IL-6, IL-8, MMP-3 mRNA levels [4]",expression of IL-1α protein (nuclear staining) [5],IRAK1 and IκBα protein abundance [6],NF-κB DNA binding [7],NF-κB transactivation activity [8]
C[C@]12C[C@H](O)[C@H]3[C@@H](CCC4=CC(=O)CC[C@@]43C)[C@@H]1CC[C@@H]2C(=O)CO [corticosterone],suppressed IL-6 secretion,without altering ATP levels,suppressed the secretion of several growth and angiogenic factors such as VEGF,"strongly suppressed the secretion of several pro-inflammatory cytokines and chemokines, including IL-6, IL-8, GM-CSF and MCP-2",Neither glucocorticoid suppressed all components of the SASP,unaffected by glucocorticoid addition,no effect on IκBα mRNA levels,strongly reduced,suppressed expression of IL-1α protein,restored IRAK1 and IκBα proteins to near-presenescent levels,significantly decreased,significantly decreased
C[C@]12CCC(=O)C=C1CC[C@@H]1[C@@H]2[C@@H](O)C[C@@]2(C)[C@H]1CC[C@]2(O)C(=O)CO [cortisol],suppressed IL-6 secretion,without altering ATP levels,suppressed the secretion of several growth and angiogenic factors such as VEGF,"strongly suppressed the secretion of several pro-inflammatory cytokines and chemokines, including IL-6, IL-8, GM-CSF and MCP-2",Neither glucocorticoid suppressed all components of the SASP,unaffected by glucocorticoid addition,no effect on IκBα mRNA levels,strongly reduced,suppressed expression of IL-1α protein,restored IRAK1 and IκBα proteins to near-presenescent levels,significantly decreased,significantly decreased
